Legend:
[1] = tested on: prolyl hydroxylase; conditions: as disclosed in WO2017059623; cited from earlier work
[2] = XRPD comparison of crystal forms before and after DSC heating; assay type: physicochemical
Procedure: XRPD test was carried out on the samples of crystal forms A, B and I after the DSC test.

[3] = XRPD comparison of crystal forms before and after the DVS test; assay type: physicochemical; conditions: for Crystal form change before and after the DVS test (XRPD): 25° C., water, 50%-95%-0%-95%-50% RH; for Stability / sensitivity to humidity: conclusion from XRPD before and after DVS test
Procedure: XRPD test was carried out on the samples of crystal forms A, B and I after the DVS test, and the XRPD results of each crystal form before and after the DVS test were compared.
DVS instrument parameters:
Maximum step size: 360 minutes

[4] = XRPD after standing at 0% humidity for 10 days; assay type: physicochemical
Excerpt: The samples of crystal forms A and B were left to stand under the condition of 0% humidity for 10 days, and subjected to XRPD to investigate the stability of the crystal form under the low humidity condition.

[5] = Physical stability test (XRPD) of crystal forms under different placement conditions; assay type: physicochemical; conditions: for Physical stability, conclusion from Table 7: C, D, H changed after one week, A, B, I did not change after one month; for Physical stability (XRPD): 1 week
Procedure: Physical stability test was carried out on the samples of crystal forms A, B, C, D, H and I under different placement conditions. The placement conditions were:
1. 40° C., humidity 75%, open/sealed;
2. 25° C., humidity 60%, open; and […]

[6] = Chemical stability under different humidity conditions, impurity content by HPLC; assay type: physicochemical; conditions: for Total impurity content (%): HPLC; for Impurity content level / Change of impurity content under various conditions: conclusion from Table 8; for Change of impurity content under various conditions: humidity 0%, 75%, 92.5% (25° C.), up to 30 days
Procedure: The samples of crystal forms A, B and I were left to stand under different humidity conditions to test their chemical stability. The impurity content was determined by HPLC (HPLC detection conditions: ZORBAX SB-C18 4.6*150 mm 3.5 μm, mobile phase: TFA/methanol/water, detection wavelength: 223 nm).

[7] = Chemical stability under different placement conditions; assay type: physicochemical; conditions: 40° C., humidity 75%, open/sealed, 25° C., humidity 60%, or 2-6° C.
[8] = Humidity 92.5% (25° C.), 5 days
[9] = Humidity 92.5% (25° C.), 10 days
[10] = Humidity 92.5% (25° C.), 30 days

Structure (SMILES)	Crystal form change before and after the DVS test (XRPD) [3]	Physical stability, conclusion from Table 7 [5]	Total impurity content (%) ([6]; Day 0)	Total impurity content (%) ([6]; Humidity 0% (25° C.), 5 days)	Total impurity content (%) ([6]; Humidity 0% (25° C.), 10 days)	Total impurity content (%) ([6]; Humidity 0% (25° C.), 30 days)	Total impurity content (%) ([6]; Humidity 75% (25° C.), 5 days)	Total impurity content (%) ([6]; Humidity 75% (25° C.), 10 days)	Total impurity content (%) ([6]; Humidity 75% (25° C.), 30 days)	Total impurity content (%) [6, 8] [%]	Total impurity content (%) [6, 9] [%]	Total impurity content (%) [6, 10] [%]	Impurity content level [6]	Change of impurity content under various conditions [6]	Physical stability (XRPD) ([5]; 40° C. open (humidity 75%))	also measured
O=C(O)CNC(=O)c1ncc(C#CCOc2ccc(Cl)cc2)cc1O [compound of formula (I), 2-(3-hydroxy-5-(3-p-chlorophenoxypropyn-1-yl))picolinamido acetic acid]																Inhibition effect on prolyl hydroxylase [1]: excellent inhibition effect
O=C(O)CNC(=O)c1ncc(C#CCOc2ccc(Cl)cc2)cc1O [crystal form A, 2-(3-hydroxy-5-(3-p-chlorophenoxypropyn-1-yl))picolinamido acetic acid]	did not change, but the crystallinity thereof decreased	good physical stability	1.88	1.89	2.00	2.14	1.92	1.97	2.17	1.96	1.99	2.05	relatively high impurity content	changed significantly		Crystal form change after DSC heating (XRPD) ([2]; after heating to 105° C.): changed; Crystal form change under low humidity (XRPD) [4]: changed
O=C(O)CNC(=O)c1ncc(C#CCOc2ccc(Cl)cc2)cc1O [crystal form B, 2-(3-hydroxy-5-(3-p-chlorophenoxypropyn-1-yl))picolinamido acetic acid]	did not change	good physical stability	0.95	0.97	1.03	1.09	0.94	0.98	1.06	0.98	0.98	1.02	low impurity content	substantially did not increase		Crystal form change after DSC heating (XRPD) ([2]; after heating to 135° C.): did not change; Stability / sensitivity to humidity [3]: most stable to humidity; Crystal form change under low humidity (XRPD) [4]: did not change; Chemical stability under different placement conditions [7]: excellent chemical stability
O=C(O)CNC(=O)c1ncc(C#CCOc2ccc(Cl)cc2)cc1O [crystal form C, 2-(3-hydroxy-5-(3-p-chlorophenoxypropyn-1-yl))picolinamido acetic acid]		poor physical stability													x (x means that the crystal form changed)	Physical stability (XRPD) ([5]; 4° C. sealed): x (x means that the crystal form changed); Physical stability (XRPD) ([5]; 25° C. open (humidity 60%)): x (x means that the crystal form changed); Physical stability (XRPD) ([5]; 40° C. sealed (humidity 75%)): x (x means that the crystal form changed)
O=C(O)CNC(=O)c1ncc(C#CCOc2ccc(Cl)cc2)cc1O [crystal form D, 2-(3-hydroxy-5-(3-p-chlorophenoxypropyn-1-yl))picolinamido acetic acid]		poor physical stability													x (x means that the crystal form changed)	Physical stability (XRPD) ([5]; 4° C. sealed): x (x means that the crystal form changed); Physical stability (XRPD) ([5]; 25° C. open (humidity 60%)): x (x means that the crystal form changed); Physical stability (XRPD) ([5]; 40° C. sealed (humidity 75%)): x (x means that the crystal form changed)
O=C(O)CNC(=O)c1ncc(C#CCOc2ccc(Cl)cc2)cc1O [crystal form H, 2-(3-hydroxy-5-(3-p-chlorophenoxypropyn-1-yl))picolinamido acetic acid]		poor physical stability													x (x means that the crystal form changed)	
O=C(O)CNC(=O)c1ncc(C#CCOc2ccc(Cl)cc2)cc1O [crystal form I, 2-(3-hydroxy-5-(3-p-chlorophenoxypropyn-1-yl))picolinamido acetic acid]	changed	good physical stability	1.56	1.57	1.58	2.06	1.72	1.78	1.88	1.90	2.24	2.22	relatively high impurity content	changed significantly		Crystal form change after DSC heating (XRPD) ([2]; after heating to 105° C.): changed; Stability / sensitivity to humidity [3]: most sensitive to humidity
